Data: article PMC9270327 (Communications Biology, 2022)
Counter-ions that a name gives are not always drawn. Like-named read-outs stand apart in the source and are kept apart here.

System: SARS-CoV-2 Wuhan-Hu-1 D614G, Caco-2 cells
Assay type: cell-based
Conditions: for IC50: Caco-2 cells; for SARS-CoV-2 infection, Mean (0 nM = 100): Fig. 6b, D614G isolate
[1] = in-cell ELISA 2 days post infection

Compound	IC50 (2 days post infection)	IC50 [1]	SARS-CoV-2 infection, Mean (0 nM = 100) (compound 32 nM)	SARS-CoV-2 infection, Mean (0 nM = 100) (compound 160 nM)	SARS-CoV-2 infection, Mean (0 nM = 100) (compound 800 nM)	SARS-CoV-2 infection, Mean (0 nM = 100) (compound 4000 nM)	SARS-CoV-2 infection, Mean (0 nM = 100) (compound 20000 nM)	SARS-CoV-2 infection, Mean (0 nM = 100) (compound 100000 nM)
CN(C)C(=O)COC(=O)Cc1ccc(OC(=O)c2ccc(NC(=N)N)cc2)cc1 [CM, camostat mesylate, reference compound]	26.7 µM	26.7 µM	93.4834	88.1889	88.3001	93.3101	68.3858	1.574
ace-Arg-Pro-Arg-kbt [Compound 2]	17.1 µM	17.1 µM	95.739	98.0747	97.5395	101.461	23.4531	0.121
